From ChEMBL document CHEMBL5291721, “A preclinical secondary pharmacology resource illuminates target-adverse drug reaction associations of marketed drugs” (Nat Commun, 2023)

What was measured:
[1] = target: Beta-1 adrenergic receptor (Homo sapiens, UniProt P08588); format: functional
Adenosine receptor A1 = target: T1, Adenosine receptor A1 (Homo sapiens, UniProt P30542)
T1 sequence (P30542 whole entry): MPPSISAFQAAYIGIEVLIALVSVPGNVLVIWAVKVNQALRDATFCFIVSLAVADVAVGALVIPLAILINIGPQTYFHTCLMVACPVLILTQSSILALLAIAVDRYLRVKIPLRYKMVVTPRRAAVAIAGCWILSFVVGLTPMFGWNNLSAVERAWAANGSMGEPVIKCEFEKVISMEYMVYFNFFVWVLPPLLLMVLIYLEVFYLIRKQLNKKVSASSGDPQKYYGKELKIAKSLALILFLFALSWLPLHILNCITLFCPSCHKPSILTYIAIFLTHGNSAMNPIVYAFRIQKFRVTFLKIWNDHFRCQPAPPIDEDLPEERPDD

[2] = target: T2, 5-hydroxytryptamine receptor 3A (Homo sapiens, UniProt P46098); format: functional
T2 sequence (P46098 whole entry): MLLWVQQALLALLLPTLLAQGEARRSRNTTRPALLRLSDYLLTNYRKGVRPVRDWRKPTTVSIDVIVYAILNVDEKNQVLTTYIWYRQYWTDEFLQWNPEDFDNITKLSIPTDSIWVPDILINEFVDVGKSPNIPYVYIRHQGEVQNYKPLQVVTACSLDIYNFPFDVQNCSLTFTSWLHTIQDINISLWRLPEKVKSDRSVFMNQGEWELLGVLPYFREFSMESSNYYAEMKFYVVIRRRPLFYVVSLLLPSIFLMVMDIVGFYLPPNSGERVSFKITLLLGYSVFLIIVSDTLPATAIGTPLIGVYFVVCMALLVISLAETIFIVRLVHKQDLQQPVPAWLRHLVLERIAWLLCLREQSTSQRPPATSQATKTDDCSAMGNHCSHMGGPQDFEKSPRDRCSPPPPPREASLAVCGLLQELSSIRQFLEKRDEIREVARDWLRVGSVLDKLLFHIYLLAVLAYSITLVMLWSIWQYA

[3] = target: T3, Muscarinic acetylcholine receptor M1 (Homo sapiens, UniProt P11229); format: functional
T3 sequence (P11229 whole entry): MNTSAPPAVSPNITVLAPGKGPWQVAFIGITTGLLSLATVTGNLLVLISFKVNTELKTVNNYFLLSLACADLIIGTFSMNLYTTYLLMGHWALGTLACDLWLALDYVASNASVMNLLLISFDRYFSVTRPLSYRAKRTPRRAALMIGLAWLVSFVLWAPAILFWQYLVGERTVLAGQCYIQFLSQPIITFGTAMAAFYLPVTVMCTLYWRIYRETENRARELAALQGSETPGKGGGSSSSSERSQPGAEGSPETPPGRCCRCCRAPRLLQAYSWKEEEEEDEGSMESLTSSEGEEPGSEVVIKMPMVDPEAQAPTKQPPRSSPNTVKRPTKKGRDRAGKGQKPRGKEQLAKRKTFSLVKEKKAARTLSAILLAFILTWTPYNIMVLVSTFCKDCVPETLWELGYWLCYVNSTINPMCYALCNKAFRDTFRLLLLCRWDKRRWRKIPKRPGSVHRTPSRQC

[4] = target: T4, Alpha-2A adrenergic receptor (Homo sapiens, UniProt P08913); format: functional, cell-based
T4 sequence (P08913 whole entry): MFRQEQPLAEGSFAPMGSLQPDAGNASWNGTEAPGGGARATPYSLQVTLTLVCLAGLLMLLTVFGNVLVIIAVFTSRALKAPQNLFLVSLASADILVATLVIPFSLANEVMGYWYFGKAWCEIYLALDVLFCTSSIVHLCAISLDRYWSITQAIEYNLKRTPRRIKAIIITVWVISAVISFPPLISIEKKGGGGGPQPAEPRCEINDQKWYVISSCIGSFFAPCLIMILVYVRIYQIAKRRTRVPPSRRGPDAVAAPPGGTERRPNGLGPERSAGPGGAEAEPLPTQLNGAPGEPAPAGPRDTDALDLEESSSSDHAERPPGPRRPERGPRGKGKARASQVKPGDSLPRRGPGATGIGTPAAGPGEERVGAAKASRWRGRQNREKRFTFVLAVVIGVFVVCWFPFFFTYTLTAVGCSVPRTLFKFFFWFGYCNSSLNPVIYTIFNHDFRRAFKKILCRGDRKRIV

Progesterone receptor = target: T5, Progesterone receptor (Homo sapiens, UniProt P06401); format: functional
T5 sequence (P06401 whole entry): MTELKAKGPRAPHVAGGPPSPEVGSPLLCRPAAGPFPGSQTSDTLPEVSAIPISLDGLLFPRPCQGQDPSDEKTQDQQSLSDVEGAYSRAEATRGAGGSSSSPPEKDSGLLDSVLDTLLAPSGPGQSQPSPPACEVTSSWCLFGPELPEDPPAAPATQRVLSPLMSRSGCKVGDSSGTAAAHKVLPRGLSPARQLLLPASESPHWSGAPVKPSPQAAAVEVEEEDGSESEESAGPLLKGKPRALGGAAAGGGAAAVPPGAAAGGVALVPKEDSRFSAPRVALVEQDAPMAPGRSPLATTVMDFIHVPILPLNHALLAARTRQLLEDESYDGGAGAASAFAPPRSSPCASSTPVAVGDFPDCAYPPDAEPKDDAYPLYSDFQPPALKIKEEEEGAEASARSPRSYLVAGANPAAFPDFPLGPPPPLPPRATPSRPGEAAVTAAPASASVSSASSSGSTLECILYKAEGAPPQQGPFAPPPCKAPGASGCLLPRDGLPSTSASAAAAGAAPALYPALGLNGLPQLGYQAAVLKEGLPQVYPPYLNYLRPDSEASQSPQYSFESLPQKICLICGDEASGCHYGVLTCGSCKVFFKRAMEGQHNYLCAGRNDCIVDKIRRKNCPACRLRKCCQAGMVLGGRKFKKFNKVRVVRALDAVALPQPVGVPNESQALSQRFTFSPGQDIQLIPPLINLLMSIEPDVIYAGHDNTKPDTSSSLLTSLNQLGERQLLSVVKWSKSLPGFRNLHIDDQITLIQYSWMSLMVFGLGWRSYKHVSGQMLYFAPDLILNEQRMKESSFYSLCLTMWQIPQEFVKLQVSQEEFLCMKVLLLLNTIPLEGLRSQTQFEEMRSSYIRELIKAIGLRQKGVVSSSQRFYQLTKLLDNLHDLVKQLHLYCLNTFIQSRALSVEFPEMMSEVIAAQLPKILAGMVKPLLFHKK

Cannabinoid receptor 1 = Cannabinoid receptor 1 (Homo sapiens, UniProt P21554); format: functional, cell-based
Sequence of Cannabinoid receptor 1 (P21554 whole entry): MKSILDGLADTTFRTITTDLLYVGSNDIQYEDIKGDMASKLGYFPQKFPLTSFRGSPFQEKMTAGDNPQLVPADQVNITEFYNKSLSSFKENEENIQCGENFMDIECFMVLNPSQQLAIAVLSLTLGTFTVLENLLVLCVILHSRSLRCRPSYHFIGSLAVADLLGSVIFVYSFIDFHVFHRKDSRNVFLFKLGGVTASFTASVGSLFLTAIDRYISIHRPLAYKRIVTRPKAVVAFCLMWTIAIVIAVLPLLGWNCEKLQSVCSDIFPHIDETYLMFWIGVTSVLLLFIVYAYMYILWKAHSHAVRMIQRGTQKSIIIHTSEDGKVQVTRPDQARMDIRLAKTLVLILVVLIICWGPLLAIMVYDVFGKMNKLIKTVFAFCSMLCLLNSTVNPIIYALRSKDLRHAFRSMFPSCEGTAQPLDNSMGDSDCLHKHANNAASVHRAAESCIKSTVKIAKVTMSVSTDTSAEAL
Also: assay procedure not described here.

Sequence of Beta-1 adrenergic receptor (P08588 whole entry): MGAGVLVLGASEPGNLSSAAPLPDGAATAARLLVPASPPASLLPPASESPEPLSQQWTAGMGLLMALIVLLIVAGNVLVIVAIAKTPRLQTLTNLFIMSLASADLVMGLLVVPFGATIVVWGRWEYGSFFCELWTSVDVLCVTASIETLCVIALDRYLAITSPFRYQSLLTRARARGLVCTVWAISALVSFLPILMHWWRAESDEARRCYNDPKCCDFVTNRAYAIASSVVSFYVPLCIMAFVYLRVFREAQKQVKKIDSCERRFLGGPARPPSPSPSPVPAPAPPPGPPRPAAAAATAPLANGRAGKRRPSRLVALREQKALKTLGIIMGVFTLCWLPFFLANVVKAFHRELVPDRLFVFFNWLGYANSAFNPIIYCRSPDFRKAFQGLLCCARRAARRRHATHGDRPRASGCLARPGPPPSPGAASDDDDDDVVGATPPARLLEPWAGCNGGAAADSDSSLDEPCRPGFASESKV

| SMILES | AC50 [1] [µM] | AC50 (Adenosine receptor A1) [µM] | AC50 [2] [µM] | AC50 [3] [µM] | AC50 [4] [µM] | AC50 (Progesterone receptor) [µM] | AC50 (Cannabinoid receptor 1) [µM] |
| --- | --- | --- | --- | --- | --- | --- | --- |
| C=CCC1(C(C)CC)C(=O)NC(=O)NC1=O (stereo unspecified) [TALBUTAL] | > 10 | > 10 | > 30 | > 10 | > 10 | > 10 |  |
| Cc1cc(O)c(C(=O)N[C@@H](C(=O)N[C@@H]2C(=O)N3C(C(=O)O)=C(CSc4nnnn4C)CS[C@H]23)c2ccc(O)cc2)cn1 [CEFPIRAMIDE] | > 30 | > 30 | > 30 | > 30 | > 30 | > 30 |  |
| O=C(O)CCCCCCCC(=O)O [AZELAIC ACID] | > 10 | > 10 | > 30 | > 10 | > 10 | > 10 |  |
| CN1C(=O)OC(C)(C)C1=O [TRIMETHADIONE] | > 10 | > 10 | > 30 |  | > 10 | > 10 | > 30 |
| Cn1c(=O)c2c(ncn2CC2OCCO2)n(C)c1=O [DOXOFYLLINE] | > 30 | > 30 | > 30 |  | > 30 | > 30 | > 30 |
| COC(=O)C1=C(C)NC(C)=C(C(=O)OC(C)(C)CN(C)CCC(c2ccccc2)c2ccccc2)C1c1cccc([N+](=O)[O-])c1 (stereo unspecified) [LERCANIDIPINE] | > 30 | > 30 | > 30 | > 30 | > 30 | > 30 |  |
| C=CCC1(CC(C)C)C(=O)NC(=O)NC1=O [BUTALBITAL] | > 10 | > 10 | > 30 | > 30 | > 10 | > 10 |  |
| CC=CC(=O)N(CC)c1ccccc1C | > 10 | > 10 | > 30 |  | > 10 | > 10 | > 30 |
| O=C(O)[C@H](CC(=O)N1C[C@H]2CCCC[C@H]2C1)Cc1ccccc1 [MITIGLINIDE] | > 10 | > 10 | > 30 | > 10 | > 10 | > 10 |  |
| CC(C(=O)O)c1ccc(N2Cc3ccccc3C2=O)cc1 (stereo unspecified) [INDOPROFEN] | > 30 | > 30 | > 30 | > 30 | > 30 | > 30 |  |
| CO[C@@H]1[C@@H](O[C@@H]2O[C@H](C)[C@@H](O[C@H]3C[C@@](C)(O)[C@@H](OC(=O)CC(C)C)[C@H](C)O3)[C@H](N(C)C)[C@H]2O)[C@@H](CC=O)C[C@@H](C)[C@@H](O)/C=C/C=C/C[C@@H](C)OC(=O)C[C@H]1OC(C)=O [JOSAMYCIN] | > 10 | > 10 | > 30 | > 10 | > 10 | > 10 |  |
| O=C(O)C[C@H](O)C[C@H](O)/C=C/c1c(C2CC2)nc2ccccc2c1-c1ccc(F)cc1 [PITAVASTATIN] | > 30 | > 10 | > 30 | > 30 | > 10 | > 30 |  |
| CCCC(C)C1(CC)C(=O)NC(=O)NC1=O (stereo unspecified) [PENTOBARBITAL] | > 10 | > 10 | > 30 | > 30 | > 10 | > 10 |  |
| Cc1cccc(C(C)c2cnc[nH]2)c1C (stereo unspecified) [MEDETOMIDINE] | > 30 | > 30 | > 30 | > 30 |  | > 30 |  |
| Nc1nc(N)nc(-c2cc(Cl)ccc2Cl)n1 [IRSOGLADINE] | > 30 | > 30 |  |  | > 30 | > 30 | > 30 |
| O=C(O)C1=C(CSc2nnnn2CS(=O)(=O)O)CS[C@@H]2[C@H](NC(=O)[C@H](O)c3ccccc3)C(=O)N12 [CEFONICID] | > 30 | > 30 | > 30 | > 30 | > 30 | > 30 |  |
| NCC[C@H](O)C(=O)N[C@@H]1C[C@H](N)[C@@H](O[C@H]2O[C@H](CN)[C@@H](O)[C@H](O)[C@H]2O)[C@H](O)[C@H]1O[C@H]1O[C@H](CO)[C@@H](O)[C@H](N)[C@H]1O [AMIKACIN] | > 10 | > 10 | > 30 |  | > 10 | > 10 |  |
| CCc1c(Cl)c(O)c(Cl)c(O)c1C(=O)O[C@H]1[C@H](O)[C@H](OC)[C@H](OC/C2=C\C=C\C[C@H](O)/C(C)=C/[C@H](CC)[C@@H](O[C@@H]3OC(C)(C)[C@@H](OC(=O)C(C)C)[C@H](O)[C@@H]3O)/C(C)=C/C(C)=C/C[C@@H]([C@@H](C)O)OC2=O)O[C@@H]1C [FIDAXOMICIN] | > 10 | > 30 | > 10 | > 30 |  | > 30 |  |
| C[C@](N)(Cc1ccc(O)c(O)c1)C(=O)O [METHYLDOPA] | > 10 | > 30 | > 30 |  | > 10 | > 30 |  |
| CCOC(=O)OC(C)OC1=C(C(=O)Nc2ccccn2)N(C)S(=O)(=O)c2ccccc21 (stereo unspecified) [AMPIROXICAM] | > 30 | > 30 | > 30 |  | > 30 | > 30 | > 30 |
| CC(=O)O[C@H]1C[C@@H]2CC[C@@H]3[C@H](CC[C@@]4(C)[C@H]3C[C@H]([N+]3(C)CCCCC3)[C@@H]4OC(C)=O)[C@@]2(C)C[C@@H]1N1CCCCC1 [VECURONIUM] | > 30 | > 30 | > 30 |  | > 30 | > 30 | > 30 |
| CC(Oc1c(Cl)cccc1Cl)C1=NCCN1 (stereo unspecified) [LOFEXIDINE] | > 30 | > 30 | > 30 | > 30 |  | > 30 |  |
